Source: patent publication US20050250820A1, “Therapeutic modulation of PPARgamma activity” (Amgen Inc., priority 2004, published 2005)

Assays:
PPARγ = target: T1, PPARγ (UniProt P37231); assay: PPARγ ligand binding assay utilizing [3H]-BRL 49653 as the radioligand; details: concentration required to reduce specific binding by 50%
T1 construct: fused on or other part: GST tag fused to PPARgamma, used for capture on glutathione beads
T1 sequence (P37231 1-505): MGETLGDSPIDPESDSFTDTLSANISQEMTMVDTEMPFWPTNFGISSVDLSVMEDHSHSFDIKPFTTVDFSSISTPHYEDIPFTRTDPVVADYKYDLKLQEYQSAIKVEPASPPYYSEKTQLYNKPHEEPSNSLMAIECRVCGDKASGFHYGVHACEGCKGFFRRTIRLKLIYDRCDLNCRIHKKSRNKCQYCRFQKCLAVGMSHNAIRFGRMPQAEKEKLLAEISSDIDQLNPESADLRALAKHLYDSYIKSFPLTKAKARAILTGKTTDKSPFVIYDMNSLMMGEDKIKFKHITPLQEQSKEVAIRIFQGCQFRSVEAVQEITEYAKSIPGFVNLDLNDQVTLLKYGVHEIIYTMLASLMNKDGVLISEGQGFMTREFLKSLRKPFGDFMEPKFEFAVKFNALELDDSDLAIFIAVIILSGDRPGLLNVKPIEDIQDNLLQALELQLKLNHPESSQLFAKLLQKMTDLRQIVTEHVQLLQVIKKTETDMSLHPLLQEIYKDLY
Text: The compounds for use according to the present invention can be evaluated for modulation of the PPARγ receptor using assays such as those described in Jiang, et al., Nature 391:82-86 (1998), Ricote, et al., Nature 391:79-82 (1998) and Lehmann, et al., J. Biol. Chem. 270(12): 12953-12956 (1995). Alternatively, the compounds for use according to the invention can be evaluated for their ability to displace radiolabeled BRL 49653 from a PPARγ-GST fusion protein as follows:
PPAR-γ-GST fusion protein (prepared according to standard procedures), [^3H]-BRL 49653 having 50 Ci/mmol specific activity, Polyfiltronics Unifilter 350 filtration plate and glutathione-Sepharose® beads (from Pharmacia: washed twice with 10× binding buffer in which BSA and DTI can be left out).
Binding buffer (10 mM Tris-HCl, pH 8.0, 50 mM KCl, 10 mM DTT, 0.02% BSA and 0.01% NP-40) is added in 80 microliter amounts to the wells of the filtration plate. The test compound is then added in 10 microliters of DMSO. The PPARy-GST fusion protein and radiolabeled BRL compound are premixed in binding buffer containing 10 mM DTT and added in 10 microliter amounts to the wells of the plate to provide final concentrations of 1 μg/well of PPAR-γ-GST fusion protein and 10 nM [^3H]-BRL 49653 compound. The plate is incubated for 15 minutes. Glutathione-agarose bead is added in 50 μL of binding buffer, and the plate is vigorously shaken for one hour. The plate is washed four times with 200 μL/well of binding buffer (without BSA and DTT). The bottom of the plate is sealed and 200 μL/well of scintillation cocktail is added. The top of the plate is then sealed and the radioactivity is determined. Formulation and Administration of the Compounds (Compositions) for Use According to the Invention

KK-Ay mice = assay: anti-diabetic efficacy in KK-Ay mice (change in serum glucose levels); format: in vivo; details: 0.018% (30 mg/kg) dietary admixture in powdered diet, change in serum glucose levels compared to untreated control animals
Protocol: Selected compounds were administered to KK-Ay mice as a 0.018% (30 mg/kg) dietary admixture in powdered diet and evaluated for anti-diabetic efficacy as described (T. Shibata, K. Matsui, K. Nagao, H. Shinkai, F. Yonemori and K. Wakitani 1999; European Journal of Pharmacology 364:211-219). The change in serum glucose levels compared to untreated control animals is exemplified in Table 39.

O=S(=O)(Nc1cc(Cl)c(Sc2cnc3ccccc3c2)c(Cl)c1)c1ccc(C(F)(F)F)cc1Cl [Example 87.3]
melting point: 225.1 °C | IC50 (PPARγ): < 1 µM | KKAy Glucose (KK-Ay mice): ++ ((++) glucose lowering >20%)

O=S(=O)(Nc1cc(Cl)c(Oc2nc3ccc(Cl)cc3s2)c(Cl)c1)c1ccc(C(F)(F)F)cc1Cl [Example 365, 2-Chloro-N-[3,5-dichloro-4-(6-chloro-benzothiazol-2-yloxy)-phenyl]-4-trifluoromethyl-benzenesulfonamide]
melting point: 82 to 84 °C | IC50 (PPARγ): < 10 µM | KKAy Glucose (KK-Ay mice): ++ ((++) glucose lowering >20%)
